We go through 2 molecules from US6410557B1, “Dry skin remedies” (Daiichi Pharmaceutical Col, Ltd., priority 1999, dated 2002).

Molecules are shown by their SMILES. Read-outs that look alike come from different tables or passages of the source.

In one assay the test system is Humans. The protocol: A multi-facility double blind comparison study was carried out for examination of perspiration promoting action on human, by preparing capsules containing 30 or 60 mg of cis-2-methylspiro(1,3-oxathiolane-5,3′)quinuclidine hydrochloride. 75 Americans (69 White, 1 Black, and 5 Hispanic subjects) were divided into 3 groups randomly. Each group received either one placebo capsule (0 mg), one 30 mg capsule, or one 60 mg capsule orally administered three times a day for 6 weeks. The increase of perspiration in each group was tested.

In another assay the test system is Rat Foot Skin. Put plainly: Promoting action on the secretion of sweat in rat foot skin (starch-iodine reaction). It counts as in vivo. As for the experimental part:
A pharmacological activity test was carried out using 6 male Wister rats (body weight 199-238 g) in one group. After fasting for 1 day, rats were anesthetized by 50 mg/kg of sodium pentobarbital which was intraperitoneally administered, and an endotracheal tube was inserted to maintain the airway.
The soles of the right and left feet were cleaned with 70% ethanol, then 95% ethanol containing 2% of iodine was applied and allowed to dry. Castor oil containing 50% corn starch was coated to the soles of both feet, 5 minutes later a solvent alone or 1,3,10, and 30 mg/kg of cis-2-methylspiro(1,3-oxathiolane-5,3′)quinuclidine hydrochloride were administered intravenously.

[1] abbreviates: 30 mg capsule orally × 3/day for 6 weeks, 25 subjects.
Setting [2] is: 60 mg capsule orally × 3/day for 6 weeks, 27 subjects.

Turning to `CC1OC2(CS1)CN1CCC2CC1.Cl` (stereo not drawn) [cis-2-methylspiro(1,3-oxathiolane-5,3′)quinuclidine hydrochloride], in the assay on Humans (setting [1]), the “Number of Subjects Showing perspiration” value turned out to be 4 and the “Number of Subjects Showing perspiration (%)” value is recorded as 16.0%. In the assay with Humans (setting [2]), the “Number of Subjects Showing perspiration” value is recorded as 13 and the “Number of Subjects Showing perspiration (%)” value is 48.1%. In addition, the “sweat secretion of human” value in the assay on Humans (capsules, oral, three times a day for 6 weeks) is “remarkably promoted”. Also, the “sweat secretion on the soles of both feet (number of colored points, degree of perspiration)” value in the assay with Rat Foot Skin (anesthetized male Wister rats, 1, 3, 10 and 30 mg/kg intravenously, FIG. 1) is listed as “promoted depending on the dose level”.

Turning to `CN1[C@@H]2CC[C@H]1C[C@@H](OC(=O)C(CO)c1ccccc1)C2` (stereo partly shown) [atropine, reference compound], in the assay on Rat Foot Skin (rat soles of feet), the “effect on the sweat secretion promoting activity of the quinuclidine hydrochloride” value is recorded as “blocks this activity”.
